Experimental data from patent US11753373B2, “Protease inhibitors as antivirals” (priority 2021, dated 2023).
Like-named read-outs stand apart in the source and are kept apart here.

What was measured:
SARS-CoV-2 = assay: Anti-viral in vitro PRNT assay in Vero E6 cells; format: cell-based; conditions: Vero E6 cells, 1000 pfu, 3 days, plaque reduction; for EC50: read-out: anti-SARS-CoV2 (PRNT) in Vero E6 EC50
in vivo [1] = conditions: female, beagle, dog, po, 40 mg/kg
Procedure: Pharmacokinetics of test compounds was evaluated following an oral administration of a single dose (at 40 mg/kg) to female Beagle dogs.
Procedure: Test compounds were orally administered to beagle dogs (single dose). The target dose level for oral administration was 40 mg/kg. Blood samples were collected at pre-dose, and at 0.083, 0.25, 0.50, 1, 2, 4, 6, 8, and 24 hours post-dose. Concentrations of test compound were determined by an LC-MS/MS. Non-compartmental Pharmacokinetic parameters of test compounds were analyzed using Phoenix WinNonlin 8.3.
Animal Dosing: All animals were fasted ˜17-19 h prior to dosing and fed approximately 4 hours after dosing. […] The dogs were dosed at 10.0 ml/kg. The formulation volume of the test compound administered to each animal was calculated based on the body weight measured on the day of dosing.
Sample Collection and Analysis: Approximately 1 mL of blood was collected by jugular vein puncture into tubes containing EDTA-K2 anticoagulant. Plasma samples were harvested by centrifugation (2000 g for 10 minutes at 4° C. within 2 hours after collection) and stored at −80° C. until analysis. The analytical method for test compound involved protein precipitation by adding acetonitrile containing 1% FA and internal standard (A-1-a synthesized in house or Tolbutamide purchased from Sigma), and final analysis by LC-MS/MS. A standard curve was prepared using dog plasma for the test article. The calibration curve was linear over a concentration range of 1.0 to 1000 ng/mL.
(§1) Pharmacokinetic and Statistic Analysis: The reported plasma concentrations of test compounds were used to determine pharmacokinetic parameters, using a non-compartmental model for data analysis (Phoenix WinNonlin 8.3). The common pharmacokinetic parameters were calculated, whenever possible, from the plasma concentration-versus-time data. Nominal doses and sampling times were used, except where deviations were noted. […] BQL after Tmax would not participate in calculation of PK parameters.

[2] = format: in vitro ADME, Human; conditions: extraction ratio; for Liver Microsomal Stability (ER) Human, at 0.1 uM: compound at 0.1 uM, human liver microsomes; for Liver Microsomal Stability (ER) Human: compound at 1 uM, human liver microsomes 0.5 mg/mL
in vivo [3] = conditions: female, Balb/c, mouse, po, 40 mg/kg
Procedure: (§2) Pharmacokinetics of test compounds was evaluated following an oral administration of a single dose (at 40 mg/kg) to female Balb/c mice.
(§3) Procedure: Test compounds were administered to Balb/c mice (n=3 per sex per time point) by a single oral gavage. The target dose level for oral administration was 40 mg/kg. Blood samples were collected at pre-dose, and at 0.083, 0.25, 0.50, 1, 2, 4, 6, 8, and 12 hours post-dose. Concentrations of test compound were determined by an LC-MS/MS. Non-compartmental Pharmacokinetic parameters of test compounds were analyzed using Phoenix WinNonlin 8.3.
(§4) Animal Dosing: All animals were fasted overnight through approximately 4 hours post-dose. Tap water was provided to mice ad Libitum. The mice were dosed orally at 10.0 ml/kg. The formulation volume of the test compound administered to each animal was calculated based on the body weight measured on the day of dosing.
(§5) Sample Collection and Analysis: Approximately 0.20 mL of blood was collected via orbital sinus vein puncture into EDTA-K2 tubes. Plasma samples were harvested by centrifugation and stored at −80° C. until analysis. The analytical method for test compound involved protein precipitation by adding acetonitrile containing 1% FA and internal standard (A-1-a synthesized in house or Tolbutamide purchased from Sigma), and final analysis by LC-MS/MS. A standard curve was prepared using mouse plasma for the test compound. The calibration curve was linear over a concentration range of 1.0 to 1000 ng/mL.
as §1

[4] = format: in vitro ADME; conditions: extraction ratio, compound at 1 uM; for Liver Microsomal Stability (ER) SD rat: SD rat liver microsomes 0.5 mg/mL; for Liver Microsomal Stability (ER) Beagle dog: beagle dog liver microsomes 0.5 mg/mL; for Liver Microsomal Stability (ER) Monkey: monkey liver microsomes 0.5 mg/mL; for Liver Microsomal Stability (ER) Mouse: mouse liver microsomes 0.5 mg/mL
[5] = target: SARS-CoV-2 M^pro (3CL protease) (Severe acute respiratory syndrome coronavirus 2 (2019-nCoV) (SARS-CoV-2), UniProt P0DTD1); format: biochemical; conditions: read-out: SARS-CoV-2M^pro inhibition IC50
[6] = mouse oral PK, female Balb/c, 40 mg/kg single dose; for AUC0-t / Cmax / Tmax / t1/2: plasma
Procedure: as §2, §3, §4, §5, §1

[7] = Severe acute respiratory syndrome coronavirus 2, Vero C1008, 72 h
[8] = wild type Mpro 17 nM, substrate 40 uM

## CC(C)C[C@H](NC(=O)c1cc2ccccc2[nH]1)C(=O)N[C@H](C=O)C[C@@H]1CCNC1=O [Compound A-1-c, N—((S)-4-methyl-1-oxo-1-(((S)-1-oxo-3-((S)-2-oxopyrrolidin-3-yl)propan-2-yl)amino)pentan-2-yl)-1H-indole-2-carboxamide]
SARS-CoV-2; [7]
  EC50: 300 nM
In vivo [1]
  AUC0-t: 36700 ng·h/mL
  Cmax: 13800 ng/mL
  Tmax: 0.833 h
  bioavailability: 31%
  half-life: 4.84 h
[2]
  Liver Microsomal Stability (ER) Human, at 0.1 uM: 0.45(0.1 uM)*
  Liver Microsomal Stability (ER) Human: 0.12,
In vivo [3]
  AUC0-t: 2170 ng·h/mL
  Cmax: 734 ng/mL
  Tmax: 3 h
  bioavailability: 8%
  half-life: 1.07 h
[4]
  Liver Microsomal Stability (ER) SD rat: 0.05
  Liver Microsomal Stability (ER) Beagle dog: 0.09
  Liver Microsomal Stability (ER) Monkey: 0.14
  Liver Microsomal Stability (ER) Mouse: 0.04

## CC(C)C[C@H](NC(=O)c1cc2ccccc2[nH]1)C(=O)N[C@@H](C[C@@H]1CCNC1=O)C(=O)CO [Compound A-1-h]
SARS-CoV-2
  anti-SARS-CoV2 (PRNT) in Vero E6 EC50 (μM): Inactive
[5]; [8]
  IC50: 10.2 nM
[2]
  Liver Microsomal Stability (ER) Human: 0.07
[4]
  Liver Microsomal Stability (ER) SD rat: 0.13
  Liver Microsomal Stability (ER) Beagle dog: 0.03
  Liver Microsomal Stability (ER) Mouse: 0.23

## CC(C)C[C@H](NC(=O)c1cc2c(F)cccc2[nH]1)C(=O)N[C@H](C#N)C[C@@H]1CCNC1=O [Compound A-3-a, (2S)—N-[(1S)-1-cyano-2-[(3S)-2-oxopyrrolidin-3-yl]ethyl]-2-[(4-fluoro-1H-indol-2-yl)-formamido]-4-methylpentanamide]
SARS-CoV-2; [7]
  EC50: 5180 nM
[2]
  Liver Microsomal Stability (ER) Human: 0.02
In vivo [3]
  AUC0-t: 15500 ng·h/mL
  Cmax: 8050 ng/mL
  Tmax: 1 h
  half-life: 0.976 h
[4]
  Liver Microsomal Stability (ER) SD rat: 0.21
  Liver Microsomal Stability (ER) Beagle dog: 0.03
  Liver Microsomal Stability (ER) Monkey: 0.27
  Liver Microsomal Stability (ER) Mouse: 0.07

## CC(C)C[C@H](NC(=O)c1cc2c(F)cccc2[nH]1)C(=O)N[C@@H](C[C@@H]1CCNC1=O)C(=O)CO [Compound A-3-e, (2S)-2-[(4-fluoro-1H-indol-2-yl)formamido]-N-[(2S)-4-hydroxy-3-oxo-1-[(3S)-2-oxopyrrolidin-3-yl]butan-2-yl]-4-methylpentanamide]
[5]
  IC50: 5.11 nM
[2]
  Liver Microsomal Stability (ER) Human: 0.11
In vivo [3]
  AUC0-t: 261 ng·h/mL
  Cmax: 131 ng/mL
  Tmax: 0.25 h
  half-life: 1.25 h
[4]
  Liver Microsomal Stability (ER) SD rat: 0.17
  Liver Microsomal Stability (ER) Beagle dog: 0.05
  Liver Microsomal Stability (ER) Mouse: 0.23

## Cc1cccc2[nH]c(C(=O)N[C@@H](CC(C)C)C(=O)N[C@H](C=O)C[C@@H]3CCNC3=O)cc12 [Compound A-4-a, 4-methyl-N—((S)-4-methyl-1-oxo-1-(((S)-1-oxo-3-((S)-2-oxopyrrolidin-3-yl)propan-2-yl)amino)pentan-2-yl)-1H-indole-2-carboxamide]
SARS-CoV-2; [7]
  EC50: 1130 nM
[5]
  IC50: 2.39 nM
[2]
  Liver Microsomal Stability (ER) Human: 0.21
In vivo [3]
  half-life: 1 h
[4]
  Liver Microsomal Stability (ER) SD rat: 0.06
  Liver Microsomal Stability (ER) Beagle dog: 0.22
  Liver Microsomal Stability (ER) Monkey: 0.098
  Liver Microsomal Stability (ER) Mouse: 0.13

## Cc1cccc2[nH]c(C(=O)N[C@@H](CC(C)C)C(=O)N[C@@H](C[C@@H]3CCNC3=O)C(=O)CO)cc12 [Compound A-4-d]
SARS-CoV-2
  EC50: 2060 nM
[5]; [8]
  IC50: 4.13 nM
[2]
  Liver Microsomal Stability (ER) Human: 0.18
[6]
  AUC0-t: 120 ng·h/mL
  Cmax: 52 ng/mL
  Tmax: 4 h
  t1/2: 2.14 h
[4]
  Liver Microsomal Stability (ER) SD rat: 0.19
  Liver Microsomal Stability (ER) Beagle dog: 0.08
  Liver Microsomal Stability (ER) Mouse: 0.44

## CC(C)C[C@H](CC(=O)[C@@H](NC(=O)OCc1ccccc1)[C@@H](C)OC(C)(C)C)C(=O)N[C@H](C=O)C[C@@H]1CCNC1=O [Compound C-1-b]
SARS-CoV-2
  EC50: 1020 nM
[5]; [8]
  IC50: 1.3 nM
[2]
  Liver Microsomal Stability (ER) Human: 0.66
[6]
  F % (bioavailability): 2.9%
  AUC0-t: 128.4 ng·h/mL
  Cmax: 46.1 ng/mL
  Tmax: 2 h
  t1/2: 0.704 h
[4]
  Liver Microsomal Stability (ER) SD rat: 0.23
  Liver Microsomal Stability (ER) Beagle dog: 0.48
  Liver Microsomal Stability (ER) Monkey: 0.51
  Liver Microsomal Stability (ER) Mouse: 0.45

## CC(C)(C)[C@H](NC(=O)C(F)(F)F)C(=O)N1C[C@H]2[C@@H]([C@H]1C(=O)N[C@H](C=O)C[C@@H]1CCNC1=O)C2(C)C [Compound D-1-f]
SARS-CoV-2
  EC50: 7590 nM
[5]; [8]
  IC50: 1.08 nM
[2]
  Liver Microsomal Stability (ER) Human, at 0.1 uM: 0.22(0.1 uM)*
  Liver Microsomal Stability (ER) Human: 0.093,
[6]
  AUC0-t: 1402 ng·h/mL
  Cmax: 839 ng/mL
  Tmax: 1 h
  t1/2: 1.37 h
[4]
  Liver Microsomal Stability (ER) SD rat: −0.02
  Liver Microsomal Stability (ER) Beagle dog: 0.01
  Liver Microsomal Stability (ER) Monkey: 0.13
  Liver Microsomal Stability (ER) Mouse: −0.02

## CC(C)(C)[C@H](NC(=O)C(F)(F)F)C(=O)N1C[C@H]2[C@@H]([C@H]1C(=O)N[C@H](C#N)C[C@@H]1CCCNC1=O)C2(C)C [Compound D-3-a]
SARS-CoV-2
  EC50: 1270 nM
[5]; [8]
  IC50: 5.83 nM
[2]
  Liver Microsomal Stability (ER) Human: 0.38
[6]
  AUC0-t: 5590 ng·h/mL
  Cmax: 7070 ng/mL
  Tmax: 0.25 h
  t1/2: 0.706 h
[4]
  Liver Microsomal Stability (ER) SD rat: 0.09
  Liver Microsomal Stability (ER) Beagle dog: 0.16
  Liver Microsomal Stability (ER) Mouse: 0.66

## CC(C)C[C@H](NC(=O)c1cc2ccccc2[nH]1)C(=O)N1C[C@H]2[C@@H]([C@H]1C(=O)N[C@H](C=O)C[C@@H]1CCNC1=O)C2(C)C [Compound G-1-a]
SARS-CoV-2
  EC50: 25100 nM
[5]; [8]
  IC50: 9.57 nM
[2]
  Liver Microsomal Stability (ER) Human: 0.28
[6]
  AUC0-t: 36.1 ng·h/mL
  Cmax: 13.3 ng/mL
  Tmax: 1 h
  t1/2: 0.92 h
[4]
  Liver Microsomal Stability (ER) SD rat: 0.16
  Liver Microsomal Stability (ER) Beagle dog: 0.09
  Liver Microsomal Stability (ER) Monkey: 0.33
  Liver Microsomal Stability (ER) Mouse: 0.00

## CC(C)C[C@H](NC(=O)c1cc2ccccc2[nH]1)C(=O)N1C[C@H]2[C@@H]([C@H]1C(=O)N[C@H](C#N)C(C)(C)C)C2(C)C [Compound G-3-b]
[5]; [8]
  IC50: > 10000 nM
[2]
  Liver Microsomal Stability (ER) Human: 0.28
[6]
  AUC0-t: 383.7 ng·h/mL
  Cmax: 169 ng/mL
  Tmax: 2 h
  t1/2: 0.773 h
[4]
  Liver Microsomal Stability (ER) SD rat: 0.20
  Liver Microsomal Stability (ER) Beagle dog: 0.32
  Liver Microsomal Stability (ER) Mouse: 0.55

## CC(C)C[C@H](NC(=O)C(F)F)C(=O)N1C[C@H]2[C@@H]([C@H]1C(=O)N[C@H](C=O)C[C@@H]1CCNC1=O)C2(C)C [Compound H-1-a]
SARS-CoV-2
  anti-SARS-CoV2 (PRNT) in Vero E6 EC50 (μM): inactive
[5]; [8]
  IC50: 6.35 nM
[2]
  Liver Microsomal Stability (ER) Human: 0.08
[4]
  Liver Microsomal Stability (ER) SD rat: 0.05
  Liver Microsomal Stability (ER) Beagle dog: 0.10
  Liver Microsomal Stability (ER) Mouse: 0.24

## CC(C)C[C@H](NC(=O)C(C)(C)C)C(=O)N1C[C@H]2[C@@H]([C@H]1C(=O)N[C@H](C#N)C[C@@H]1CCNC1=O)C2(C)C [Compound H-1-d]
SARS-CoV-2
  anti-SARS-CoV2 (PRNT) in Vero E6 EC50 (μM): Inactive
[5]; [8]
  IC50: 39.6 nM
[2]
  Liver Microsomal Stability (ER) Human: 0.26
[4]
  Liver Microsomal Stability (ER) SD rat: 0.09
  Liver Microsomal Stability (ER) Beagle dog: 0.16
  Liver Microsomal Stability (ER) Mouse: 0.63

## CC(C)C[C@H](NC(=O)C1CC1)C(=O)N1C[C@H]2[C@@H]([C@H]1C(=O)N[C@H](C#N)C[C@@H]1CCNC1=O)C2(C)C [Compound H-1-f]
SARS-CoV-2
  anti-SARS-CoV2 (PRNT) in Vero E6 EC50 (μM): Inactive
[5]; [8]
  IC50: 28.6 nM
[2]
  Liver Microsomal Stability (ER) Human: 0.03
[6]
  AUC0-t: 72.0 ng·h/mL
  Cmax: 32.1 ng/mL
  Tmax: 1.0 h
  t1/2: 1.43 h
[4]
  Liver Microsomal Stability (ER) SD rat: 0.04
  Liver Microsomal Stability (ER) Beagle dog: 0.01
  Liver Microsomal Stability (ER) Mouse: 0.27

## CC(C)(C)C(=O)N[C@H](C(=O)N1C[C@H]2[C@@H]([C@H]1C(=O)N[C@H](C#N)C[C@@H]1CCNC1=O)C2(C)C)C(C)(C)C [Compound H-2-a]
SARS-CoV-2
  anti-SARS-CoV2 (PRNT) in Vero E6 EC50 (μM): Inactive
[5]; [8]
  IC50: 40.7 nM
[2]
  Liver Microsomal Stability (ER) Human: 0.53
[4]
  Liver Microsomal Stability (ER) SD rat: 0.15
  Liver Microsomal Stability (ER) Beagle dog: 0.52
  Liver Microsomal Stability (ER) Mouse: 0.83

## CC(C)(C)[C@H](NC(=O)C1CC1)C(=O)N1C[C@H]2[C@@H]([C@H]1C(=O)N[C@H](C#N)C[C@@H]1CCNC1=O)C2(C)C [Compound H-2-c]
SARS-CoV-2
  EC50: 3360 nM
[5]; [8]
  IC50: 6.1 nM
[2]
  Liver Microsomal Stability (ER) Human: 0.02
[4]
  Liver Microsomal Stability (ER) SD rat: 0.01
  Liver Microsomal Stability (ER) Beagle dog: 0.01
  Liver Microsomal Stability (ER) Mouse: 0.32

## CC(C)C[C@H](NC(=O)[C@@H](NC(=O)C(F)F)[C@@H](C)OC(C)(C)C)C(=O)N[C@H](C#N)C[C@@H]1CCNC1=O [Compound H-3-a]
SARS-CoV-2
  EC50: 2190 nM
[5]; [8]
  IC50: 8.1 nM
[2]
  Liver Microsomal Stability (ER) Human: 0.35
[4]
  Liver Microsomal Stability (ER) SD rat: 0.21
  Liver Microsomal Stability (ER) Beagle dog: 0.06
  Liver Microsomal Stability (ER) Mouse: 0.68
